Assay: in vitro
Details: human, hela cells, % viability

c1cc(COc2cncc(N3CCCC3)n2)cs1 [CBK115669]
viability at 28.5 h, 10 µM: 102%

COc1cc2c3c([nH]c2cc1F)C1(CCN(CCOc2ccccc2)C1)NCC3 (stereo not shown) [CBK115687T]
viability at 28.5 h, 10 µM: 77.6%

O=C1N=C(NCc2ccccc2F)OC12CCN(Cc1ccccc1)CC2 [CBK115688]
viability at 28.5 h, 10 µM: 96.2%

COc1ccc(CC(=O)Nc2cccc(-c3ccc4c(c3)COC3(CCNCC3)O4)c2)c(OC)c1 [CBK115706]
viability at 28.5 h, 10 µM (bulk resorufin, single well): 89.6%

CCCc1n[nH]c(C(C)C)c1C(=O)OCC [CBK115724]
viability at 28.5 h, 10 µM: 98.7%

Cc1ncsc1CCOc1nccnc1NC(C)C [CBK115728]
viability at 28.5 h, 10 µM: 106%

Cc1ncsc1CCOc1nc2cc(Cl)c(Cl)cc2nc1NC(C)C [CBK115744]
viability at 28.5 h, 10 µM: 88.6%

Cc1cc(COc2nccnc2N2CCCC2)no1 [CBK115755]
viability at 28.5 h, 10 µM: 91.3%

CSCCOc1nccnc1N1CCCC1 [CBK115757]
viability at 28.5 h, 10 µM: 120%

c1cc(CCCOc2cncc(N3CCCC3)n2)ccn1 [CBK115760]
viability at 28.5 h, 10 µM: 85.3%

CSCCOc1cncc(N2CCCC2)n1 [CBK115761]
viability at 28.5 h, 10 µM: 101%

Clc1cc2nc(OCCCc3ccncc3)c(N3CCCC3)nc2cc1Cl [CBK115774]
viability at 28.5 h, 10 µM: 98%

FC(F)(F)c1cccnc1OCc1cccnc1 [CBK115780]
viability at 28.5 h, 10 µM: 101%

FC(F)(F)c1cccnc1OCCCc1ccncc1 [CBK115782]
viability at 28.5 h, 10 µM: 93.9%

Cc1ncsc1CCOc1cc(C(F)(F)F)ccn1 [CBK115785]
viability at 28.5 h, 10 µM: 100%

Cc1ncsc1CCOc1ccc(C(F)(F)F)cn1 [CBK115790]
viability at 28.5 h, 10 µM: 101%

FC(F)(F)c1cccc(OCCCc2ccncc2)n1 [CBK115795]
viability at 28.5 h, 10 µM: 98.8%

Oc1cccc(OCCOc2cccc(C(F)(F)F)n2)c1 [CBK115797]
viability at 28.5 h, 10 µM: 84.7%

Cc1cc(COc2nccc(C(F)(F)F)n2)no1 [CBK115800]
viability at 28.5 h, 10 µM: 88.7%

Cc1ncsc1CCOc1nc2ccccc2nc1C(F)(F)F [CBK115802]
viability at 28.5 h, 10 µM: 95.2%

FC(F)(F)c1nc2ccccc2nc1OCCCc1ccncc1 [CBK115804]
viability at 28.5 h, 10 µM: 85.1%

FC(F)(F)c1nc2ccccc2nc1OC1CCOC1 (stereo not shown) [CBK115806]
viability at 28.5 h, 10 µM: 99.6%

c1ccc(NCCOc2nccnc2N2CCCC2)cc1 [CBK115814]
viability at 28.5 h, 10 µM: 87.9%

c1ccc2nc(N3CCCC3)c(OCc3ccsc3)nc2c1 [CBK115819]
viability at 28.5 h, 10 µM: 90.2%

FC(F)(F)c1ccnc(OCCNc2ccccc2)c1 [CBK115824]
viability at 28.5 h, 10 µM: 90.5%

FC(F)(F)c1ccnc(OCc2ccc(-c3ccccc3)cc2)c1 [CBK115826]
viability at 28.5 h, 10 µM: 108%

FC(F)(F)c1ccc(OCCNc2ccccc2)nc1 [CBK115828]
viability at 28.5 h, 10 µM: 101%

FC(F)(F)c1ccc(OCCOc2ccccc2)nc1 [CBK115829]
viability at 28.5 h, 10 µM: 80.4%

FC(F)(F)c1cccc(OCc2ccc(-c3ccccc3)cc2)n1 [CBK115836]
viability at 28.5 h, 10 µM: 92.1%

O=C1NC2(CCN(C(=O)c3ccc(C(F)(F)F)c(F)c3)CC2)Oc2ccc(-c3ccccc3)cc21 [CBK115841]
viability at 28.5 h, 10 µM: 99.7%

N#Cc1ccc(C(=O)N2CCC3(CC2)NC(=O)c2cc(-c4ccoc4)ccc2O3)cc1 [CBK115852]
viability at 28.5 h, 10 µM: 88.9%

CC(=O)Nc1ccc(S(=O)(=O)N2CCC3(CC2)NC(=O)c2cc(-c4ccoc4)ccc2O3)cc1 [CBK115856]
viability at 28.5 h, 10 µM: 113%

COc1cc2c(cc1OC)CN(C(=O)c1ccccn1)CC2 [CBK115864]
viability at 28.5 h, 10 µM: 98.5%

COC(=O)c1sc2cc(C(F)(F)F)cnc2c1NC(=O)C1COc2ccccc2O1 (stereo not shown) [CBK115865]
viability at 28.5 h, 10 µM: 107%

COc1ccc2[nH]cc(CCNC(=O)c3ccccn3)c2c1 [CBK115866]
viability at 28.5 h, 10 µM: 95.7%

COCCCOc1nccnc1NC(C)C [CBK115876]
viability at 28.5 h, 10 µM: 90%

CC(C)Nc1cc(OCc2cccnc2)ncn1 [CBK115883]
viability at 28.5 h, 10 µM: 91.3%

Cc1ncsc1CCOc1cc(NC(C)C)ncn1 [CBK115884]
viability at 28.5 h, 10 µM: 84.8%

COCCCOc1cc(NC(C)C)ncn1 [CBK115885]
viability at 28.5 h, 10 µM: 92.6%

CC(C)Nc1cc(OC2CCOC2)ncn1 (stereo not shown) [CBK115888]
viability at 28.5 h, 10 µM: 93.4%

c1cnc(N2CCCC2)c(OC2CCOC2)n1 (stereo not shown) [CBK115891]
viability at 28.5 h, 10 µM: 91.2%

c1ncc(N2CCCC2)nc1OC1CCOC1 (stereo not shown) [CBK115893]
viability at 28.5 h, 10 µM: 91.3%

COCCCOc1cc(N2CCCC2)ncn1 [CBK115896]
viability at 28.5 h, 10 µM: 102%

CSCCOc1cc(N2CCCC2)ncn1 [CBK115900]
viability at 28.5 h, 10 µM: 90%

Oc1cccc(OCCOc2nc3ccccc3nc2N2CCCC2)c1 [CBK115901]
viability at 28.5 h, 10 µM: 84.1%

Oc1cccc(OCCOc2nccc(C(F)(F)F)n2)c1 [CBK115903]
viability at 28.5 h, 10 µM: 92.7%

O=C(NCC1CCCN1)c1cc2cc(Cl)ccc2[nH]1 (stereo not shown) [CBK115917C]
viability at 28.5 h, 10 µM: 104%

CC(C)(C)c1cc(C(=O)NCC2CCCN2)n(Cc2ccc(Cl)cc2Cl)n1 (stereo not shown) [CBK115920C]
viability at 28.5 h, 10 µM: 96.1%

O=C(NCC1CCCN1)c1cc(C(=O)c2ccc(Cl)cc2Cl)c[nH]1 (stereo not shown) [CBK115923C]
viability at 28.5 h, 10 µM: 86.1%

O=C(NCC1CCCN1)c1cnn(-c2ccc(Cl)cc2)c1C(F)(F)F (stereo not shown) [CBK115925C]
viability at 28.5 h, 10 µM: 101%

NCCNC(=O)c1ccc(-c2cccc(C(F)(F)F)c2)o1 [CBK115927C]
viability at 28.5 h, 10 µM: 104%

CN1CCN(CCOC(=O)N2CCN(c3cccc(C(F)(F)F)c3)CC2)CC1 [CBK115940C]
viability at 28.5 h, 10 µM: 103%

O=C(O)c1cccc(Sc2nccc(C(F)(F)F)n2)c1 [CBK115957]
viability at 28.5 h, 10 µM: 90.2%

COc1ccccc1-c1nnc(SCC(=O)O)n1-c1ccccc1 [CBK116149]
viability at 28.5 h, 10 µM: 89.5%

COc1ccc2[nH]cc(CCNC(=O)CC(C)O)c2c1 (stereo not shown) [CBK116201]
viability at 28.5 h, 10 µM: 106%

COc1ccc2[nH]cc(CCNC(=O)c3cc(C)[nH]n3)c2c1 [CBK116206]
viability at 28.5 h, 10 µM: 89.8%

COc1ccc2[nH]cc(CCNC(=O)[C@H](CC(C)C)NC(C)=O)c2c1 [CBK116210]
viability at 28.5 h, 10 µM: 107%

CCCc1n[nH]c(O)c1Cc1ccc(OCCCN(C)C)cc1 [CBK116249A]
viability at 28.5 h, 10 µM: 93.1%

CN1CCN(C(=O)Nc2cccc(-c3nc(-c4ccc(C#N)cc4)cnc3N)c2)CC1 [CBK116251]
viability at 28.5 h, 10 µM: 91.7%

Cc1cc(NC(=O)CC2CC2)c2ccccc2n1 [CBK116257]
viability at 28.5 h, 10 µM: 98.6%

Cc1cc(NC(=O)Cc2ccsc2)c2ccccc2n1 [CBK116259]
viability at 28.5 h, 10 µM: 89.4%

Cc1cc(NC(=O)c2cc(C)[nH]n2)c2ccccc2n1 [CBK116260]
viability at 28.5 h, 10 µM: 98.5%

O=C(NC1CC2CCC(C1)N2Cc1ccccc1)c1cccc(Cl)c1 (stereo not shown) [CBK116291]
viability at 28.5 h, 10 µM: 95.4%

O=C1N=C(NC2CC3CCC2C3)SC12CCCO2 (stereo not shown) [CBK116312]
viability at 28.5 h, 10 µM: 110%

CN1CC(=O)N(c2ccc(Cl)cc2Cl)C1=O [CBK116319]
viability at 28.5 h, 10 µM: 93%

CN1C(=O)CN(C2CCCCC2)C1=O [CBK116320]
viability at 28.5 h, 10 µM: 82.3%

CC(C(=O)N1CCCCC1)n1sc2ccccc2c1=O (stereo not shown) [CBK116322]
viability at 28.5 h, 10 µM: 98.4%

CCOC(=O)c1c(NC(=O)c2ccccc2C(=O)O)sc2c1CCCC2 [CBK116364]
viability at 28.5 h, 10 µM: 113%

Cc1ccc(C)n1-c1ccc(CC(=O)O)cc1 [CBK116374]
viability at 28.5 h, 10 µM: 92.2%

Cc1ccc(-c2ccccc2)n1-c1ccc(O)c(C(=O)O)c1 [CBK116375]
viability at 28.5 h, 10 µM: 103%

Cc1ccc(C)n1-c1ccc(O)c(C(=O)O)c1 [CBK116381]
viability at 28.5 h, 10 µM: 94.2%

CCc1c(C)nc2ccccc2c1SCCC(=O)O [CBK116382C]
viability at 28.5 h, 10 µM: 118%

Cc1ccc(NC2(C#N)C(=O)Nc3ccccc32)cc1C (stereo not shown) [CBK116388]
viability at 28.5 h, 10 µM: 114%

Cc1cc(N2CCN(c3ccccc3)CC2)nc(-c2ccccc2O)n1 [CBK116405]
viability at 28.5 h, 10 µM: 92.1%

N#Cc1ccc(-c2cnc(N)c(-c3ccc(NC(=O)CCN4CCCCC4)cc3)n2)cc1 [CBK116418]
viability at 28.5 h, 10 µM: 85%

COC(=O)c1cn(-c2ccc(Cl)cc2)c(=O)c2ccccc12 [CBK116489]
viability at 28.5 h, 10 µM: 101%

CCCC1CCN(c2ncnc(Oc3ccc(C(=O)c4ccc(F)cc4)cc3)c2[N+](=O)[O-])CC1 [CBK116495]
viability at 28.5 h, 10 µM: 85%

O=C1CN(c2ccccc2)C(=O)N1c1ccccc1 [CBK116496]
viability at 28.5 h, 10 µM: 98.2%

Cn1c(=O)n(-c2cccc(Cl)c2)c(=O)n1C [CBK116498]
viability at 28.5 h, 10 µM: 82.2%

CCN(CC)S(=O)(=O)c1cccc(-n2sc3ccccc3c2=O)c1 [CBK116501]
viability at 28.5 h, 10 µM: 96.2%

CCN1CC2(CCNCC2)c2ccccc21 [CBK116520]
viability at 28.5 h, 10 µM: 90.4%

O=C(c1cc(-c2ccc(Cl)cc2)[nH]n1)N1CCN(c2ncccn2)CC1 [CBK116551]
viability at 28.5 h, 10 µM: 93%

CC(C)(N)CNC(=O)c1cc(-c2ccc(Cl)cc2)[nH]n1 [CBK116554]
viability at 28.5 h, 10 µM: 91.5%

O=C(Nc1cccnc1)c1cc(-c2ccc(Cl)cc2)on1 [CBK116555]
viability at 28.5 h, 10 µM: 92.8%

CN(C)CCCNC(=O)c1cc(-c2ccc(Cl)cc2)on1 [CBK116557]
viability at 28.5 h, 10 µM: 90.2%

O=C(CC1CC1)Nc1cc(-c2ccncc2)c[nH]c1=O [CBK116585]
viability at 28.5 h, 10 µM: 91.9%

CN1CCC[C@H]1C(=O)Nc1cc(-c2ccncc2)c[nH]c1=O [CBK116587]
viability at 28.5 h, 10 µM: 107%

COc1ccc2[nH]cc(CCNC(=O)CCC(=O)O)c2c1 [CBK116605]
viability at 28.5 h, 10 µM: 96.5%

COc1ccc(COc2nc3ccccc3nc2NC(C)C)cc1OC [CBK116610]
viability at 28.5 h, 10 µM: 93.5%

COc1ccc(COc2nccnc2N2CCCC2)cc1OC [CBK116613]
viability at 28.5 h, 10 µM: 94.8%

FC(F)(F)c1cccnc1OCCOc1ccc(Cl)cc1 [CBK116621]
viability at 28.5 h, 10 µM: 90.5%

CC(C)(C)c1cc(C(=O)NCCN)n(Cc2ccc(Cl)cc2Cl)n1 [CBK116631T]
viability at 28.5 h, 10 µM: 95.1%

O=C(Nc1ccncc1)c1cnc2cc(C(F)(F)F)ccc2c1O [CBK116633T]
viability at 28.5 h, 10 µM: 92.1%

O=C(NCc1ccccn1)c1cnn(-c2ccc(Cl)cc2)c1C(F)(F)F [CBK116637T]
viability at 28.5 h, 10 µM: 101%

O=[N+]([O-])c1ccc2c(c1)COC1(CCNCC1)O2 [CBK116644]
viability at 28.5 h, 10 µM (bulk resorufin, single well): 83.7%

CN(C)C(=O)c1ccc(-c2cnc(N)c(-c3ccc(O)cc3)n2)cc1 [CBK116686]
viability at 28.5 h, 10 µM: 91.7%

O=C(NCc1ccc(F)cc1)N(Cc1cccc(Cl)c1)CC1CCNCC1 [CBK119479]
viability at 28.5 h, 10 µM: 117%

Reference: PMC12040169 (PLOS Biology, 2025)
